Where a name gives a salt, the structure may show the parent alone.

The first experiment has as its system NLRP3 inflammasome. As to the kind of experiment: IL-1β Secretion Assay (NLRP3-dependent IL-1β secretion in PMA-differentiated THP-1 cells, nigericin activation, HTRF). It counts as cell-based. As to conditions: Homo sapiens, THP-1, THP-1 cells, 100 ng/mL PMA 24 h, compound 20 h, 2.5 μM Nigericin 3 h; read-out: IC50 IL-1β Inhibition. An outline of the steps: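 IL-1β release, quantified by HTRF after nigericin activation of the NLRP3 inflammasome, was the read-out. A logistic fit of percent inhibition gave IC50.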
For `CCN1CCC[C@@H](Nc2nnc(-c3ccc(OC)cc3C(F)(F)F)c3cccn23)C1` [Compound I-392], the IC50 (as a rule, the midpoint of a concentration-inhibition curve) was in the range of 0.001 to 0.01 µM. In the case of `CN1CCC[C@@H](Nc2nnc(-c3ccc(C(F)(F)F)cc3O)c3c(F)ccn23)C1` [Compound I-393], the IC50 was under 0.001 µM. For the molecule `CN1CCC[C@@H](Nc2nnc(-c3ccc(C(F)(F)F)cc3OC(F)F)c3c(F)ccn23)C1` [Compound I-394], the IC50 lay within 0.001 to 0.01 µM. For the molecule `Oc1cc(C(F)(F)F)cc(F)c1-c1nnc(N[C@@H]2CCCOC2)n2cccc12` [Compound I-395], the IC50 was in the range of 0.01 to 0.1 µM. On the same count and under the same terms, to `Cc1ccc(-c2nnc(N[C@@H]3CCCN(C)C3)n3nc(C)cc23)c(OC(F)(F)F)c1` [Compound I-396, (R)-2-Methyl-4-(4-methyl-2-(trifluoromethoxy)phenyl)-N-(1-methylpiperidin-3-yl)pyrazolo[1,5-d][1,2,4]triazin-7-amine] belongs 0.01 to 0.1 µM; to `Oc1cc(C(F)(F)F)ccc1-c1nnc(N[C@@H]2CCCOC2)n2cncc12` [Compound I-397], 0.01 to 0.1 µM. With `CN1CCC[C@@H](Nc2nnc(-c3ccc(C(F)(F)F)cc3O)c3nccn23)C1` [Compound I-398, 2-[5-[[(3R)-1-Methyl-3-piperidyl]amino]imidazo[1,2-d][1,2,4]triazin-8-yl]-5-(trifluoromethyl)phenol formic acid salt], the IC50 was over 0.3 µM. Turning to `Oc1cc(C(F)(F)F)ccc1-c1nnc(N[C@@H]2CCC[C@H](O)C2)n2cccc12` [Compound I-399], the IC50 was 0.01 to 0.1 µM.

Take `CO[C@H]1CCC[C@@H](Nc2nnc(-c3ccc(C(F)(F)F)cc3O)c3cccn23)C1` [Compound I-400]: the IC50 was 0.1 to 0.3 µM. On to `Oc1cc(C(F)(F)F)ccc1-c1nnc(N[C@@H]2CCCOC2)n2cccc12` [Compound I-401], for which the IC50 lay in the range of 0.1 to 0.3 µM.

With `Oc1cc(Cl)ccc1-c1nnc(N[C@@H]2CCCOC2)n2cccc12` [Compound I-402], the IC50 lay within 0.01 to 0.1 µM. With `CC(C)(O)CN1CCC[C@@H](Nc2nnc(-c3ccc(Cl)cc3O)c3cccn23)C1` [Compound I-403], the IC50 fell in the range of 0.01 to 0.1 µM. For `CC(C)N1CCC[C@@H](Nc2nnc(-c3ccc(Cl)cc3O)c3cccn23)C1` [Compound I-404], the IC50 was under 0.001 µM.

As to `Oc1cc(C(F)(F)F)ccc1-c1nnc(N[C@H]2C[C@](O)(C(F)(F)F)C2)n2cccc12` [Compound I-405], the IC50 lay in the range of 0.1 to 0.3 µM. For `C[C@]1(O)C[C@@H](Nc2nnc(-c3ccc(C(F)(F)F)cc3O)c3cccn23)C1` [Compound I-406], the IC50 lay within 0.001 to 0.01 µM. For `COc1cc(C#N)ccc1-c1nnc(N[C@@H]2CCCN(C)C2)n2cccc12` [Compound I-407], the 50% inhibitory concentration (IC50) lay within 0.01 to 0.1 µM.

Regarding `CN1C[C@H](F)C[C@@H](Nc2nnc(-c3ccc(OC(F)(F)F)cc3O)c3cccn23)C1` [Compound I-409], the IC50 lay within 0.001 to 0.01 µM.

Regarding `CN1C[C@H](F)C[C@@H](Nc2nnc(-c3ccc(C(F)(F)F)cc3O)c3cccn23)C1` [Compound I-410], the IC50 was in the range of 0.001 to 0.01 µM.

On to `COc1ccc(-c2nnc(N[C@@H]3CCCN(C)C3)n3c(C)ncc23)c(O)c1` [Compound I-411], for which the IC50 fell in the range of 0.01 to 0.1 µM. With `Oc1cc(C(F)(F)F)ccc1-c1nnc(N[C@@H]2CCCN(CC(F)F)C2)n2cccc12` [Compound I-412], the IC50 was under 0.001 µM. With `CN1C[C@H](F)C[C@@H](Nc2nnc(-c3ccc(C(F)(F)F)cc3OC(F)F)c3cccn23)C1` [Compound I-413, 1-[2-(Difluoromethoxy)-4-(trifluoromethyl)phenyl]-N-[(3R,5R)-5-fluoro-1-methyl-3-piperidyl]pyrrolo[1,2-d][1,2,4]triazin-4-amine], the IC50 was in the range of 0.001 to 0.01 µM.

On to `CCN1CCC[C@@H](Nc2nnc(-c3c(O)cc(C(F)(F)F)cc3F)c3cccn23)C1` [Compound I-414], for which the IC50 was under 0.001 µM. `OCCN1CCC[C@@H](Nc2nnc(-c3c(O)cc(C(F)(F)F)cc3F)c3cccn23)C1` [Compound I-415]: the IC50 was 0.001 to 0.01 µM.

In the case of `CN1C[C@H](F)C[C@@H](Nc2nnc(-c3c(O)cc(C(F)(F)F)cc3F)c3cccn23)C1` [Compound I-416], the IC50 was in the range of 0.001 to 0.01 µM.

Consider `CC(C)(O)CN1CCC[C@@H](Nc2nnc(-c3c(O)cc(C(F)(F)F)cc3F)c3cccn23)C1` [Compound I-417], for which the IC50 was in the range of 0.001 to 0.01 µM.

For `Cc1cc(O)c(-c2nnc(N[C@@H]3CCCOC3)n3cccc23)c(F)c1` [Compound I-421], the IC50 lay in the range of 0.001 to 0.01 µM. In the case of `Cc1cc(O)c(-c2nnc(N[C@@H]3CCC[C@H](O)C3)n3cccc23)c(F)c1` [Compound I-422], the IC50 is 0.001 to 0.01 µM.

Turning to `Oc1cc(C2CC2)cc(F)c1-c1nnc(N[C@@H]2CCCOC2)n2cccc12` [Compound I-423], the IC50 fell in the range of 0.01 to 0.1 µM. On the same count and under the same terms, the value for `Oc1cc(C2CC2)cc(F)c1-c1nnc(N[C@@H]2CCC[C@H](O)C2)n2cccc12` [Compound I-424] was 0.001 to 0.01 µM; that for `Cc1ccc(-c2nnc(N[C@@H]3CCCN(C)C3)n3cccc23)c(C(F)F)c1` [Compound I-425, 1-[2-(Difluoromethyl)-4-methyl-phenyl]-N-[(3R)-1-methyl-3-piperidyl]pyrrolo[1,2-d][1,2,4]triazin-4-amine] was 0.01 to 0.1 µM. `CN1CCC[C@@H](Nc2nnc(-c3ccc(C(F)(F)F)cc3C(F)F)c3cccn23)C1` [Compound I-426]: the IC50 fell in the range of 0.01 to 0.1 µM. On the same count and under the same terms, to `C[C@]1(O)C[C@@H](Nc2nnc(-c3ccc(C(F)(F)F)cc3C(F)F)c3cccn23)C1` [Compound I-427] belongs 0.01 to 0.1 µM; to `Cc1cc(F)c(-c2nnc(N[C@@H]3CCCN(C)C3)n3cccc23)c(OC(F)F)c1` [Compound I-428], 0.01 to 0.1 µM. Turning to `Cc1cc2c(-c3c(O)cc(C4CC4)cc3F)nnc(N[C@@H]3CCCN(C)C3)n2n1` [Compound I-429], the IC50 was under 0.001 µM. On the same count and under the same terms, to `Oc1cc(C(F)(F)F)cc(F)c1-c1nnc(N[C@@H]2CCCN(C3CCOCC3)C2)n2cccc12` [Compound I-430] belongs 0.001 to 0.01 µM. Same read-out and setting: the value for `Cc1cc(C(F)(F)F)cc(O)c1-c1nnc(N[C@@H]2CCCN(C)C2)n2cccc12` [Compound I-431] was under 0.001 µM; that for `CN1CCC[C@@H](Nc2nnc(-c3c(O)cc(Cl)cc3F)c3cccn23)C1` [Compound I-432] was under 0.001 µM.

Consider `CCN1CCC[C@@H](Nc2nnc(-c3c(O)cc(Cl)cc3F)c3cccn23)C1` [Compound I-433], for which the IC50 was under 0.001 µM. For `C[C@]1(O)C[C@@H](Nc2nnc(-c3c(O)cc(Cl)cc3F)c3cccn23)C1` [Compound I-434], the IC50 lay within 0.001 to 0.01 µM. `Oc1cc(Cl)ccc1-c1nnc(N[C@@H]2CCCNC2)n2cncc12` [Compound I-435]: the IC50 lay within 0.001 to 0.01 µM. On the same count and under the same terms, the value for `OCCN1CCC[C@@H](Nc2nnc(-c3ccc(Cl)cc3O)c3cncn23)C1` [Compound I-436] was 0.001 to 0.01 µM; that for `C[C@@H](O)CNc1nnc(-c2ccc(OC(F)(F)F)cc2O)c2cccn12` [Compound I-437] was 0.01 to 0.1 µM; that for `CC(C)(O)CNc1nnc(-c2ccc(OC(F)(F)F)cc2O)c2cccn12` [Compound I-438] was 0.1 to 0.3 µM.

Staying with this experiment, now noted: THP-1 cells, 100 ng/mL PMA 24 h, compound 20 h, 2.5 μM Nigericin 3 h; read-out: IC50 IL-1β Inhibition.
Consider `Cc1cc2c(-c3ccc(C4CC4)cc3OC(F)(F)F)nnc(N[C@@H]3CCCN(C)C3)n2n1` [Compound I-418], for which the IC50 fell in the range of 0.001 to 0.01 µM.

As for `Cc1cc2c(-c3ccc(C4CC4)cc3OC(F)(F)F)nnc(N[C@@H]3CCCN(C)C3)n2n1` [Compound I-419, (R)-4-(4-Cyclopropyl-2-(trifluoromethoxy)phenyl)-2-methyl-N-(1-methylpiperidin-3-yl)pyrazolo[1,5-d][1,2,4]triazin-7-amine], the IC50 lay in the range of 0.01 to 0.1 µM.

Values taken from US20240262806A1, “INHIBITORS OF NLRP3” (PTC THERAPEUTICS, INC., priority 2021, published 2024).
